From ChEMBL document CHEMBL5500360, “Discovery of N-(4-((6-(3,5- Dimethoxyphenyl)-9H-purine derivatives as irreversible covalent FGFR inhibitors” (Eur J Med Chem, 2024)
Activity calls are given as the source filed them. The calls are words filed in the database; no cut-off is given here.

What was measured:
[1] = tested on: MDA-MB-231; experiment: Cell cycle arrest in human MDA-MB-231 cells assessed as accumulation of S phase cells at 2.5 uM incubated for 24 hrs by […]PI staining based flow cytometric analysis (reference value: 41.29%); assay type: functional
[2] = tested on: MDA-MB-231; experiment: Cell cycle arrest in human MDA-MB-231 cells assessed as accumulation of G0-G1 phase cells at 5 uM incubated for 24 hrs by […]PI staining based flow cytometric analysis (reference value: 41.83%); assay type: functional
[3] = tested on: MDA-MB-231; experiment: Cell cycle arrest in human MDA-MB-231 cells assessed as accumulation of G2-M phase cells at 5 uM incubated for 24 hrs by […]PI staining based flow cytometric analysis (reference value: 16.88%); assay type: functional
[4] = tested on: MDA-MB-231; experiment: Cell cycle arrest in human MDA-MB-231 cells assessed as accumulation of G0-G1 phase cells at 10 uM incubated for 24 hrs by […]PI staining based flow cytometric analysis (reference value: 41.83%); assay type: functional
[5] = tested on: MDA-MB-231; experiment: Cell cycle arrest in human MDA-MB-231 cells assessed as accumulation of G2-M phase cells at 10 uM incubated for 24 hrs by […]PI staining based flow cytometric analysis (reference value: 16.88%); assay type: functional
[6] = tested on: MDA-MB-231; experiment: Induction of apoptosis in human MDA-MB-231 cells assessed as viable cells at 2.5 uM incubated for 24 hrs by Annexin V-FITC/PI staining based flow cytometric analysis (reference value: 99.645%); assay type: functional; details: read-out: Activity
[7] = tested on: MDA-MB-231; experiment: Induction of apoptosis in human MDA-MB-231 cells assessed as early apoptotic cells at 2.5 uM incubated for 24 hrs by Annexin V-FITC/PI staining based flow cytometric analysis (reference value: 0.131 %); assay type: functional
[8] = tested on: MDA-MB-231; experiment: Induction of apoptosis in human MDA-MB-231 cells assessed as necrotic cells at 2.5 uM incubated for 24 hrs by Annexin V-FITC/PI staining based flow cytometric analysis (reference value: 0.063 %); assay type: functional
[9] = tested on: MDA-MB-231; experiment: Induction of apoptosis in human MDA-MB-231 cells assessed as viable cells at 5 uM incubated for 24 hrs by Annexin V-FITC/PI staining based flow cytometric analysis (reference value: 99.645%); assay type: functional; details: read-out: Activity
[10] = tested on: MDA-MB-231; experiment: Induction of apoptosis in human MDA-MB-231 cells assessed as early apoptotic cells at 5 uM incubated for 24 hrs by Annexin V-FITC/PI staining based flow cytometric analysis (reference value: 0.131 %); assay type: functional
[11] = tested on: MDA-MB-231; experiment: Induction of apoptosis in human MDA-MB-231 cells assessed as late apoptotic cells at 5 uM incubated for 24 hrs by Annexin V-FITC/PI staining based flow cytometric analysis (reference value: 0.161 %); assay type: functional
[12] = tested on: MDA-MB-231; experiment: Induction of apoptosis in human MDA-MB-231 cells assessed as necrotic cells at 5 uM incubated for 24 hrs by Annexin V-FITC/PI staining based flow cytometric analysis (reference value: 0.063 %); assay type: functional
[13] = tested on: MDA-MB-231; experiment: Induction of apoptosis in human MDA-MB-231 cells assessed as viable cells at 10 uM incubated for 24 hrs by Annexin V-FITC/PI staining based flow cytometric analysis (reference value: 99.645%); assay type: functional; details: read-out: Activity
[14] = tested on: MDA-MB-231; experiment: Induction of apoptosis in human MDA-MB-231 cells assessed as late apoptotic cells at 10 uM incubated for 24 hrs by Annexin V-FITC/PI staining based flow cytometric analysis (reference value: 0.161 %); assay type: functional
[15] = tested on: MDA-MB-231; experiment: Induction of apoptosis in human MDA-MB-231 cells assessed as apoptotic cells at 10 uM incubated for 24 hrs by Annexin V-FITC/PI staining based flow cytometric analysis relative to control; assay type: functional
[16] = tested on: MDA-MB-231; experiment: Inhibition of cell migration in human MDA-MB-231 cells at 5 uM incubated for 12 hrs by cell scratch assay relative to control; assay type: functional
[17] = tested on: MDA-MB-231; experiment: Induction of ROS production in human MDA-MB-231 cells incubated for 12 hrs by flow cytometry based confocal microscopic analysis; assay type: functional, cell-based; details: dose 2.5-10 µM
[18] = tested on: MDA-MB-231; experiment: Induction of apoptosis in human MDA-MB-231 cells assessed as increase in cleaved-PARP protein expression incubated for 24 hrs by Western blot analysis; assay type: functional, cell-based; details: dose 2.5-10 µM
[19] = tested on: MDA-MB-231; experiment: Effect on FGFR1 protein expression in human MDA-MB-231 cells at 5 to 10 uM incubated for 24 hrs by Western blot analysis; assay type: functional, cell-based; details: dose 5-10 µM
[20] = tested on: MDA-MB-231; experiment: Effect on ERK protein expression in human MDA-MB-231 cells at 5 to 10 uM incubated for 24 hrs by Western blot analysis; assay type: functional, cell-based; details: dose 5-10 µM
[21] = tested on: MDA-MB-231; experiment: Effect on PLCgamma protein expression in human MDA-MB-231 cells at 5 to 10 uM incubated for 24 hrs by Western blot analysis; assay type: functional, cell-based; details: dose 5-10 µM
[22] = Metabolic stability in human liver microsomes assessed as parent compound remaining at 1 uM measured after 5 mins by LC-MS/MS analysis; assay type: ADME, Microsome; details: read-out: Stability
[23] = Metabolic stability in human liver microsomes assessed as parent compound remaining at 1 uM measured after 30 mins by LC-MS/MS analysis; assay type: ADME, Microsome; details: read-out: Stability
[24] = Metabolic stability in human liver microsomes assessed as parent compound remaining at 1 uM measured after 45 mins by LC-MS/MS analysis; assay type: ADME, Microsome; details: read-out: Stability
[25] = Metabolic stability in rat liver microsomes assessed as parent compound remaining at 1 uM measured after 45 mins by LC-MS/MS analysis; assay type: ADME, Microsome; details: read-out: Stability
[26] = Metabolic stability in mouse liver microsomes assessed as parent compound remaining at 1 uM measured after 30 mins by LC-MS/MS analysis; assay type: ADME, Microsome; details: read-out: Stability
[27] = Metabolic stability in human liver microsomes assessed as intrinsic clearance at 1 uM incubated for 45 mins by LC-MS/MS analysis; assay type: ADME, Microsome; details: read-out: CLH
[28] = Metabolic stability in rat liver microsomes assessed as half-life at 1 uM incubated for 45 mins by LC-MS/MS analysis; assay type: ADME, Microsome
[29] = Metabolic stability in mouse liver microsomes assessed as intrinsic clearance at 1 uM incubated for 45 mins by LC-MS/MS analysis; assay type: ADME, Microsome; details: read-out: CLH
[30] = Toxicity in BALB/c athymic nude mouse xenografted with human MDA-MB-231 cells assessed as body weight loss at 10 to 30 mg/kg, po administered once a day via gavage for 21 days; assay type: organism-based; details: in vivo, 504 h, dose 10-30 mg/kg, time 21 day
[31] = Toxicity in BALB/c athymic nude mouse xenografted with human MDA-MB-231 cells assessed as effect on heart at 10 to 30 mg/kg, po administered once a day via gavage for 21 days by H and E staining based analysis; assay type: organism-based; details: in vivo, 504 h, dose 10-30 mg/kg, time 21 day
[32] = Toxicity in BALB/c athymic nude mouse xenografted with human MDA-MB-231 cells assessed as effect on lung at 10 to 30 mg/kg, po administered once a day via gavage for 21 days by H and E staining based analysis; assay type: organism-based; details: in vivo, 504 h, dose 10-30 mg/kg, time 21 day
[33] = Toxicity in BALB/c athymic nude mouse xenografted with human MDA-MB-231 cells assessed as effect on kidney at 10 to 30 mg/kg, po administered once a day via gavage for 21 days by H and E staining based analysis; assay type: organism-based; details: in vivo, 504 h, dose 10-30 mg/kg, time 21 day
[34] = tested on: MDA-MB-435; experiment: cells; details: Homo sapiens, MDA-MB-435, 72 h
Description: Antiproliferative activity against human MDA-MB-435 cells assessed as inhibition of cell growth incubated for 72 hrs by MTT assay

[35] = tested on: KYSE-150 cell line; experiment: cells; details: Homo sapiens, KYSE-150, 72 h
Description: Antiproliferative activity against human KYSE-150 cells assessed as inhibition of cell growth incubated for 72 hrs by MTT assay

C=CC(=O)Nc1ccc(Cn2cnc3c(-c4cc(OC)cc(OC)c4)ncnc32)cc1
Activity [1]: 34.25% | Activity [2]: 66.5% | Activity [3]: 10.68% | Activity [4]: 73.78% | Activity [5]: 15.49% | viability at 2.5 µM [6]: 64.9% | Activity [7]: 26.3% | Activity [8]: 2.66% | viability at 5 µM [9]: 47.8% | Activity [10]: 34.92% | Activity [11]: 14.25% | Activity [12]: 3.01% | viability at 10 µM [13]: 37.2% | Activity [14]: 15.73% | Activity [15]: 56.8% | inhibition at 5 µM [16]: 82% | Activity [17]: Dose-Dependent Effect | Activity [18]: Dose-Dependent Effect | Activity [19]: inactive | Activity [20]: inactive | Activity [21]: inactive | remaining at 5 min, 1 µM [22]: 85% | remaining at 0.5 h, 1 µM [23]: 43.7% | remaining at 0.75 h, 1 µM [24]: 33.8% | remaining at 0.75 h, 1 µM [25]: 9.41% | remaining at 0.5 h, 1 µM [26]: 8.63% | CLint scaled at 1 µM [27]: 42 mL/min/kg | half-life at 1 µM [28]: 15.9 min | CLint scaled at 1 µM [29]: 424 mL/min/kg | Activity [30]: Non-Toxic | Activity [31]: Non-Toxic | Activity [32]: Non-Toxic | Activity [33]: Non-Toxic | IC50 [34]: 9.17 µM | IC50 [35]: 1.93 µM
